In US4024282A, “Pharmaceutically active 2-(3-alkylaminopropoxy)diphenylmethanes” (Mitsubishi Chemical Industries Ltd., priority 1975, dated 1977):
Where a name gives a salt, the structure may show the parent alone. Read-outs that look alike come from different tables or passages of the source.

What was measured:
[1] = test system: reserpine induced hypothermia; test: Antagonism of reserpine induced hypothermia in mice (antireserpine / antidepressant activity); format: in vivo; details: for Antidepressant activity (in words): according to pharmacological testing, reversal of reserpine hypothermia in mice
Method: (§1) The compounds were administered intraperitoneally and the activities of the compounds were compared with those of Amitriptyline.

[2] = test system: electroshock induced tonic extensor; test: Antagonism of electroshock induced tonic extensor (anticonvulsant activity); format: in vivo; details: Mus musculus, ip; mice; dose preventing 50% of response
Method: as §1

[3] = test system: spontaneous motor activity; test: Spontaneous motor activity measured by ANIMEX apparatus (CNS depressant activity); format: in vivo; details: Mus musculus, ip, mice, i.p., dose preventing 50% of response, read-out: Spontaneous motor activity depression ED50
Method: as §1

[4] = test system: neurological deficit as measured by traction tests; test: Traction test (CNS depressant activity, muscle relaxant action); format: in vivo; details: mice; for ED50: Mus musculus, ip, traction test, dose preventing 50% of response
Method: as §1

in vivo = details: mouse, ip
tremorine induced tremor = test: Tremorine induced tremor (central anticholinergic effect); format: in vivo; details: mice; for ED50: Mus musculus, ip, i.p., dose preventing 50% of response, read-out: Antitremorine effect ED50
Method: as §1

[5] = mice, in b83 as compared with Amitriptyline at the same relative potency

SMILES	Antidepressant activity (in words) [1]	ED50 [2] [mg/kg]	ED50 [3] [mg/kg]	ED50 [4] [mg/kg]	LD50 (in vivo) [mg/kg]	ED50 (tremorine induced tremor) [mg/kg]	other results
CN(C)CCOc1ccccc1Cc1ccccc1 [2-(2-dimethylaminoethoxy) diphenylmethane]	do not possess antidepressant activity						
CNCCOc1ccccc1Cc1ccccc1 [2-(2-methylaminoethoxy) diphenylmethane]	do not possess antidepressant activity						
CNCCCOc1ccccc1Cc1ccccc1 [2-(3-methylaminopropoxy) diphenylmethane hydrochloride]		40	90	65	160	42	Antireserpine activity, Relative Potency ([1]; mice, i.p., reserpine 5 mg/kg i.p., Amitriptyline = 1): 0.56
CN(C)CCC=C1c2ccccc2CCc2ccccc21 [Amitriptyline, reference compound]		16	18	15	65	4	
CN(C)CCCOc1ccccc1Cc1ccccc1 [2-(3-dimethylaminopropoxy)-diphenylmethane]	do not possess antidepressant activity						
CNCCCOc1ccccc1Cc1ccccc1 [2-(3-methylaminopropoxy) diphenylmethane]	high level of antidepressant activity						Toxicity (in words) [5]: low level of toxicity; Toxicity (in words) ([5]; listed as 2-(3-methylaminopropoxy)diphenylmethane): lower toxicity; CNS depressant action (in words) ([4]; as compared with Amitriptyline at the same relative potency, traction test and spontaneous motor activity): weaker CNS depressant; Anticholinergic action (in words) (tremorine induced tremor; as compared with Amitriptyline at the same relative potency): weaker CNS depressant and anticholinergic action
